Data reported in the supplement of paper PMC10627819.

Assays:
B. subtilis 168 [1] = test: fitness (endpoint OD595 vs no drug) (fraction); higher = more growth
In short: (§1)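 Background-subtracted growth curves were the basis for fitness, taken as the optical density at entry into stationary phase over the robust mean of no-drug control wells. A cap of 1 was applied. The curves came from OD595 readings every 30 min for 14 h at 37 °C, in 384-well plates seeded at OD595 0.01 with 30 µl, or 55 µl for S. pneumoniae.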

S. aureus DSM 20231 [2] = test: as above
In short: as §1

S. aureus Newman [3] = test: as above
In short: as §1

S. pneumoniae D39V [4] = test: as above
In short: as §1

B. subtilis 168 [5] = test: Bliss interaction score (quartile over a dose matrix) (fitness difference); higher = more antagonism (negative = synergy)
In short: (§2)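 Fitness was derived from optical density at entry into stationary phase, divided by the robust mean of the no-drug wells on the same plate. That reading was taken as OD595, and the ratio was capped at 1. Single-drug fitness was inferred from the combination data. The Bliss score, observed fitness minus the expected product of single-drug fitness, was summarised as quartiles over technical, biological and donor/recipient replicates.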

S. aureus DSM 20231 [6] = test: as above
In short: as §2

S. aureus Newman [7] = test: as above
In short: as §2

S. pneumoniae D39V [8] = test: as above
In short: as §2
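Wherever Bliss interaction score (quartile over a dose matrix) is given: first quartile when negative (synergy) and third quartile when positive (antagonism).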

CO/N=C(\C(=O)N[C@@H]1C(=O)N2C(C(=O)O)=C(COC(C)=O)CS[C@H]12)c1csc(N)n1 [Cefotaxime] + COc1ccc(C[C@H](N)C(=O)N[C@H]2[C@@H](O)[C@H](n3cnc4c(N(C)C)ncnc43)O[C@@H]2CO)cc1 [Puromycin]
fitness, one replicate
Conditions	partner 0.39 µg/mL	partner 0.78 µg/mL	partner 1.56 µg/mL	partner 3.12 µg/mL	partner 6.24 µg/mL
B. subtilis 168 [1], first compound 0.00775 µg/mL	0.887	0.903	0.816	–	–
B. subtilis 168 [1], first compound 0.0155 µg/mL	0.71	0.726	0.668	–	–
B. subtilis 168 [1], first compound 0.031 µg/mL	0.558	0.574	0.616	–	–
S. aureus DSM 20231 [2], first compound 0.039 µg/mL	0.811	0.79	0.806	–	–
S. aureus DSM 20231 [2], first compound 0.078 µg/mL	–	–	–	0.895	0.653
S. aureus DSM 20231 [2], first compound 0.156 µg/mL	–	–	–	0.841	0.646
S. aureus DSM 20231 [2], first compound 0.312 µg/mL	–	–	–	0.808	0.417
S. aureus Newman [3], first compound 0.039 µg/mL	0.734	0.771	0.719	–	–
S. aureus Newman [3], first compound 0.625 µg/mL	0.0309	0.0612	0.0601	–	–
S. aureus Newman [3], first compound 1.25 µg/mL	0.0598	0.0843	0.0641	–	–
S. aureus Newman [3], first compound 2.5 µg/mL	0.0418	0.0601	0.0425	–	–

fitness
Conditions	partner 0.39 µg/mL	partner 0.78 µg/mL	partner 1 µg/mL	partner 1.56 µg/mL	partner 2 µg/mL	partner 4 µg/mL
B. subtilis 168 [1], first compound 0.5 µg/mL	0.267	0.284	–	0.312	–	–
B. subtilis 168 [1], first compound 1 µg/mL	0.144	0.147	–	0.169	–	–
B. subtilis 168 [1], first compound 2 µg/mL	0.113	0.125	–	0.147	–	–
S. aureus DSM 20231 [2], first compound 0.078 µg/mL	0.748	0.774	–	0.833	–	–
S. aureus DSM 20231 [2], first compound 0.156 µg/mL	0.72	0.781	–	0.796	–	–
S. aureus DSM 20231 [2], first compound 0.312 µg/mL	0.644	0.689	–	0.712	–	–
S. aureus Newman [3], first compound 0.078 µg/mL	0.739	0.729	–	0.782	–	–
S. aureus Newman [3], first compound 0.156 µg/mL	0.633	0.698	–	0.702	–	–
S. aureus Newman [3], first compound 0.312 µg/mL	0.408	0.456	–	0.437	–	–
S. pneumoniae D39V [4], first compound 0.0018 µg/mL	–	–	0.973	–	≥ 1	0.885
S. pneumoniae D39V [4], first compound 0.0035 µg/mL	–	–	0.931	–	0.975	0.766
S. pneumoniae D39V [4], first compound 0.007 µg/mL	–	–	0.93	–	0.919	0.662

Conditions	Bliss interaction score
B. subtilis 168 [5]	0.104
S. aureus DSM 20231 [6]	0.0471
S. aureus Newman [7]	0.0762
S. pneumoniae D39V [8]	0.11

C[C@@H]1O[C@@H]1P(=O)(O)O [Fosfomycin] + CN[C@@H]1[C@H](O)[C@H](NC)[C@H]2O[C@@]3(O)C(=O)C[C@@H](C)O[C@H]3O[C@@H]2[C@H]1O [Spectinomycin]
fitness
Conditions	partner 2 µg/mL	partner 4 µg/mL	partner 8 µg/mL	partner 16 µg/mL
B. subtilis 168 [1], first compound 1.562 µg/mL	0.657	0.662	0.601	–
B. subtilis 168 [1], first compound 3.124 µg/mL	0.554	0.526	0.426	–
B. subtilis 168 [1], first compound 6.248 µg/mL	0.431	0.4	0.212	–
S. aureus DSM 20231 [2], first compound 0.781 µg/mL	–	0.69	0.72	0.683
S. aureus DSM 20231 [2], first compound 1.562 µg/mL	–	0.588	0.568	0.595
S. aureus DSM 20231 [2], first compound 3.124 µg/mL	–	0.511	0.495	0.416
S. aureus Newman [3], first compound 0.781 µg/mL	–	0.574	0.58	0.497
S. aureus Newman [3], first compound 1.562 µg/mL	–	0.452	0.412	0.234
S. aureus Newman [3], first compound 3.124 µg/mL	–	0.0691	0.0277	0.0028
S. pneumoniae D39V [4], first compound 1.25 µg/mL	–	0.943	0.885	0.806
S. pneumoniae D39V [4], first compound 2.5 µg/mL	–	0.899	0.868	0.817
S. pneumoniae D39V [4], first compound 5 µg/mL	–	0.704	0.734	0.652

fitness, one replicate
Conditions	first compound 0.781 µg/mL	first compound 1.562 µg/mL	first compound 3.124 µg/mL
S. aureus DSM 20231 [2], partner 32 µg/mL	0.692	0.564	0.268
S. aureus DSM 20231 [2], partner 64 µg/mL	0.0413	0.0145	0.0077
S. aureus Newman [3], partner 32 µg/mL	0.056	0.0135	0
S. aureus Newman [3], partner 64 µg/mL	0.0367	0.0527	0.0276

Conditions	Bliss interaction score
B. subtilis 168 [5]	-0.107
S. aureus DSM 20231 [6]	-0.0508
S. aureus Newman [7]	-0.171
S. pneumoniae D39V [8]	0.0537

C[C@@H]1O[C@@H]1P(=O)(O)O [Fosfomycin] + C[n+]1ccc(-c2cc[n+](C)cc2)cc1 [Paraquat]
fitness
Conditions	partner 1.25 µg/mL	partner 1.5 µg/mL	partner 2.5 µg/mL	partner 3 µg/mL	partner 5 µg/mL	partner 6 µg/mL
B. subtilis 168 [1], first compound 1.562 µg/mL	0.681	–	0.673	–	0.567	–
B. subtilis 168 [1], first compound 3.124 µg/mL	0.529	–	0.598	–	0.519	–
B. subtilis 168 [1], first compound 6.248 µg/mL	0.381	–	0.386	–	0.3	–
S. aureus DSM 20231 [2], first compound 0.781 µg/mL	0.717	–	0.7	–	0.702	–
S. aureus DSM 20231 [2], first compound 1.562 µg/mL	0.593	–	0.551	–	0.585	–
S. aureus DSM 20231 [2], first compound 3.124 µg/mL	0.481	–	0.51	–	0.476	–
S. aureus Newman [3], first compound 0.781 µg/mL	0.542	–	0.546	–	0.574	–
S. aureus Newman [3], first compound 1.562 µg/mL	0.468	–	0.47	–	0.483	–
S. aureus Newman [3], first compound 3.124 µg/mL	0.0901	–	0.116	–	0.169	–
S. pneumoniae D39V [4], first compound 1.25 µg/mL	–	0.985	–	0.959	–	0.985
S. pneumoniae D39V [4], first compound 2.5 µg/mL	–	0.974	–	0.973	–	0.97
S. pneumoniae D39V [4], first compound 5 µg/mL	–	0.812	–	0.831	–	0.791

Conditions	Bliss interaction score
B. subtilis 168 [5]	-0.0619
S. aureus DSM 20231 [6]	-0.101
S. aureus Newman [7]	-0.12
S. pneumoniae D39V [8]	-0.0411
